Test results taken from BindingDB's records for patent US20250059174 (Enanta Pharmaceuticals, 2025).

molecular target: Mast/stem cell growth factor receptor Kit (Homo sapiens, UniProt P10721); experiment: c-KIT Kinase Assay
Method: Kinase Reaction: The kinase assay was based on the recommended protocol by c-KIT Kinase Enzyme System from Promega. Recombinant human c-KIT kinase in 3 μL of assay buffer (40 mM Tris pH 7.5, 20 mM MgCl2, 0.1 mg/mL BSA and 50 μM DTT) was added to the test or high control wells and 3 μL of assay buffer was added to the low control wells. The microplate was centrifuged at 800 rotations per minute (rpm) for 60 s and incubated at room temperature (RT) for 30 min. Next, 2 μL of buffered ATP and polyEY substrate solution was added to all wells. The microplate was centrifuged at 800 rpm for 60 s and incubated at RT for 2 h. […] ADP detection with ADP-Glo™ Kinase Assay: After the kinase reaction incubation, 5 μL of ADP-Glo™ reagent was added to all wells. The microplate was centrifuged at 800 rpm for 60 s and incubated at RT for 40 min. Ten microliter (10 μL) of Kinase Detection Reagent (Luciferin-Luciferase system) was then added to all wells. The microplate was centrifuged at 800 rpm for 60 s and incubated at RT for 60 min. Kinase activity was measured as increase in luminescence at RT in an Envision plate reader equipped with 560 nm filters and operating in endpoint mode.

Mast/stem cell growth factor receptor Kit, sequence (P10721 whole entry): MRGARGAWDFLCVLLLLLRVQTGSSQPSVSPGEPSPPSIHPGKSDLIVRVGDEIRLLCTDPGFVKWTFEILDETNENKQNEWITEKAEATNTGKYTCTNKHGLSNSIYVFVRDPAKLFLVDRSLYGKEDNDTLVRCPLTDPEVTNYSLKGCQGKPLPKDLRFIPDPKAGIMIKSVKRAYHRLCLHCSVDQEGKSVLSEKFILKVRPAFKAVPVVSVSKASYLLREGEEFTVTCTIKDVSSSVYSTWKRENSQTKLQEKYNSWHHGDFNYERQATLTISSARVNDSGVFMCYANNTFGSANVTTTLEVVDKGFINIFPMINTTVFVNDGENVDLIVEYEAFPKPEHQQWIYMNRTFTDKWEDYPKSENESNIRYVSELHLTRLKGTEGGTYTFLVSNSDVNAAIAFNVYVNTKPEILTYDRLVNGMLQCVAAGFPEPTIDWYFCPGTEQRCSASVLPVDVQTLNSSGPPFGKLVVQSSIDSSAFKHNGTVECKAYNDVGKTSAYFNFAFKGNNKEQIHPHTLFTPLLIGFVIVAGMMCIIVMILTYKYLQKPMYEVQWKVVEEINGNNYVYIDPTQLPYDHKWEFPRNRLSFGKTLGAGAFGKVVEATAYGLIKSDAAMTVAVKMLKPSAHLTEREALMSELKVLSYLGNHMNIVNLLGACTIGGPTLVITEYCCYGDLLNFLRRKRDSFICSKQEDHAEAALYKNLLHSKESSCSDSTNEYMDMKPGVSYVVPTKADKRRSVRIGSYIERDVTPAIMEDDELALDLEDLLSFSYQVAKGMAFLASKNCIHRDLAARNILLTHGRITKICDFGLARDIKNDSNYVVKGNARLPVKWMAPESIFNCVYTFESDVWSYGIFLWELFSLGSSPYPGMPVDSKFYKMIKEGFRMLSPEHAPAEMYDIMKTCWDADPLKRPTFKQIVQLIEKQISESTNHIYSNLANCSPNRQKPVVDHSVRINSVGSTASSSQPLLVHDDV

| IC50 [nM] | Structure (SMILES) |
| --- | --- |
| < 100 | Cc1ccc(-c2noc(C3C[C@@H]3F)n2)cc1NC(=O)c1cnn2ccc(-c3cnn(C(F)F)c3)cc12 (stereo partly drawn) [US20250059174, Example 2a] |
| > 1000 | Cc1ccc(-c2noc([C@H]3C[C@@H]3F)n2)cc1NC(=O)c1cnc(N2CC(C(=O)O)C2)s1 [US20250059174, Example 98-4] |
| < 100 | Cc1ccc(-c2noc(C3C[C@@H]3F)n2)cc1NC(=O)c1cnn2ccc(N3C[C@H](CS(C)(=O)=O)[C@@H]3C)cc12 (stereo partly drawn) [US20250059174, Example 172] |
